# Results published in ChEMBL document CHEMBL3885881, “DrugMatrix”.
# Species: Rattus norvegicus
# Assay: DrugMatrix - Regimen: Daily Repeat
# Assay type: toxicity, organism-based, Sprague-Dawley
# Parameters: regimen Daily Repeat, gender Male, age 6-8 weeks
# Conditions: in vivo, iv, vehicle 100 % SALINE; for ABSOLUTE BASOPHIL / ABSOLUTE EOSINOPHIL / ABSOLUTE LYMPHOCYTE / ABSOLUTE MONOCYTE / ABSOLUTE SEGMENTED NEUTROPHIL / BASOPHIL / EOSINOPHIL / ERYTHROCYTE COUNT / HEMATOCRIT / LEUKOCYTE COUNT / LYMPHOCYTE / MEAN CORPUSCULAR HEMOGLOBIN / MEAN CORPUSCULAR HEMOGLOBIN CONCENTRATION / MONOCYTE / NEUTROPHIL / NUCLEATED RED BLOOD CELLS / PLATELET COUNT / HEMOGLOBIN: tissue Blood
# [1] = 6 mg/kg, 72 h, tissue Plasma, dose level Low, time 3 day
# [2] = 6 mg/kg, 120 h, dose level Low, time 5 day
# [3] = 6 mg/kg, 120 h, tissue Plasma, dose level Low, time 5 day
# [4] = 14 mg/kg, 72 h, dose level High, time 3 day
# [5] = 14 mg/kg, 72 h, tissue Plasma, dose level High, time 3 day
# [6] = 14 mg/kg, 120 h, dose level High, time 5 day
# [7] = 14 mg/kg, 120 h, tissue Plasma, dose level High, time 5 day
sequence,measurement,setting,value
CARBOPLATIN,TOTAL PROTEIN,[1],6.3 G/DL
same,URIC ACID,[1],1.1 mg/dL
same,ABSOLUTE BASOPHIL,[2],0 CELLS/uL
same,ABSOLUTE EOSINOPHIL,[2],0 CELLS/uL
same,ABSOLUTE LYMPHOCYTE,[2],10376.67 CELLS/uL
same,ABSOLUTE MONOCYTE,[2],36 CELLS/uL
same,ABSOLUTE SEGMENTED NEUTROPHIL,[2],287.33 CELLS/uL
same,BASOPHIL,[2],0%
same,EOSINOPHIL,[2],0%
same,ERYTHROCYTE COUNT,[2],5.55 x10E6/uL
same,HEMATOCRIT,[2],34.6%
same,LEUKOCYTE COUNT,[2],10.7 x10E3/uL
same,LYMPHOCYTE,[2],97%
same,MEAN CORPUSCULAR HEMOGLOBIN,[2],24.17 pg
same,MEAN CORPUSCULAR HEMOGLOBIN CONCENTRATION,[2],38.73 G/DL
same,MONOCYTE,[2],0.33%
same,NEUTROPHIL,[2],2.67%
same,NUCLEATED RED BLOOD CELLS,[2],0.33 /100WBC
same,PLATELET COUNT,[2],1189.33 x10E3/uL
same,ALANINE AMINOTRANSFERASE,[3],46 u/L
same,ALKALINE PHOSPHATASE,[3],366 u/L
same,ASPARTATE AMINOTRANSFERASE,[3],90.67 u/L
same,CARBON DIOXIDE,[3],29 mmol/L
same,CHOLESTEROL,[3],74.67 mg/dL
same,CREATINE PHOSPHOKINASE,[3],348 u/L
same,CREATININE,[3],0.38 mg/dL
same,GLUCOSE,[3],158.33 mg/dL
same,LACTATE DEHYDROGENASE,[3],130.67 u/L
same,LIPASE,[3],9 u/L
same,PHOSPHORUS,[3],10.43 mg/dL
same,POTASSIUM,[3],5.45 MEQ/L
same,TOTAL BILIRUBIN,[3],0.17 mg/dL
same,TOTAL PROTEIN,[3],6.07 G/DL
same,URIC ACID,[3],0.87 mg/dL
same,ABSOLUTE BASOPHIL,[4],0 CELLS/uL
same,ABSOLUTE EOSINOPHIL,[4],14 CELLS/uL
same,ABSOLUTE LYMPHOCYTE,[4],7854 CELLS/uL
same,ABSOLUTE MONOCYTE,[4],121.33 CELLS/uL
same,ABSOLUTE SEGMENTED NEUTROPHIL,[4],410.67 CELLS/uL
same,BASOPHIL,[4],0%
same,EOSINOPHIL,[4],0.33%
same,ERYTHROCYTE COUNT,[4],6.2 x10E6/uL
same,HEMATOCRIT,[4],38.03%
same,HEMOGLOBIN,[4],15.03 G/DL
same,LEUKOCYTE COUNT,[4],8.4 x10E3/uL
same,LYMPHOCYTE,[4],94%
same,MEAN CORPUSCULAR HEMOGLOBIN,[4],24.43 pg
same,MEAN CORPUSCULAR HEMOGLOBIN CONCENTRATION,[4],39.67 G/DL
same,NEUTROPHIL,[4],4%
same,NUCLEATED RED BLOOD CELLS,[4],1 /100WBC
same,PLATELET COUNT,[4],574 x10E3/uL
same,ALANINE AMINOTRANSFERASE,[5],46.67 u/L
same,ALBUMIN,[5],4.5 G/DL
same,ALKALINE PHOSPHATASE,[5],398.67 u/L
same,ASPARTATE AMINOTRANSFERASE,[5],94.33 u/L
same,BLOOD UREA NITROGEN,[5],15.67 mg/dL
same,CARBON DIOXIDE,[5],29.33 mmol/L
same,CHLORIDE,[5],97 MEQ/L
same,CHOLESTEROL,[5],78.33 mg/dL
same,CREATINE PHOSPHOKINASE,[5],381 u/L
same,CREATININE,[5],0.22 mg/dL
same,GLUCOSE,[5],145.33 mg/dL
same,LACTATE DEHYDROGENASE,[5],168.33 u/L
same,LIPASE,[5],11 u/L
same,POTASSIUM,[5],6.3 MEQ/L
same,TOTAL BILIRUBIN,[5],0.23 mg/dL
same,TOTAL PROTEIN,[5],6.6 G/DL
same,URIC ACID,[5],1.1 mg/dL
same,ABSOLUTE BASOPHIL,[6],0 CELLS/uL
same,ABSOLUTE EOSINOPHIL,[6],0 CELLS/uL
same,ABSOLUTE LYMPHOCYTE,[6],7567 CELLS/uL
same,ABSOLUTE MONOCYTE,[6],38.67 CELLS/uL
same,ABSOLUTE SEGMENTED NEUTROPHIL,[6],427.67 CELLS/uL
same,BASOPHIL,[6],0%
same,EOSINOPHIL,[6],0%
same,ERYTHROCYTE COUNT,[6],5.69 x10E6/uL
same,HEMATOCRIT,[6],34.77%
same,HEMOGLOBIN,[6],13.5 G/DL
same,LEUKOCYTE COUNT,[6],8.03 x10E3/uL
same,LYMPHOCYTE,[6],94.33%
same,MEAN CORPUSCULAR HEMOGLOBIN CONCENTRATION,[6],38.83 G/DL
same,MONOCYTE,[6],0.33%
same,NEUTROPHIL,[6],5.33%
same,NUCLEATED RED BLOOD CELLS,[6],0.33 /100WBC
same,PLATELET COUNT,[6],1070.33 x10E3/uL
same,ALANINE AMINOTRANSFERASE,[7],54 u/L
same,ALKALINE PHOSPHATASE,[7],340 u/L
same,ASPARTATE AMINOTRANSFERASE,[7],84.33 u/L
same,BLOOD UREA NITROGEN,[7],18 mg/dL
same,CARBON DIOXIDE,[7],28 mmol/L
same,CHOLESTEROL,[7],71.67 mg/dL
same,CREATINE PHOSPHOKINASE,[7],378.67 u/L
same,CREATININE,[7],0.28 mg/dL
same,GLUCOSE,[7],151.67 mg/dL
same,LACTATE DEHYDROGENASE,[7],133 u/L
same,LIPASE,[7],11.67 u/L
same,PHOSPHORUS,[7],10.93 mg/dL
same,POTASSIUM,[7],4.99 MEQ/L
same,TOTAL BILIRUBIN,[7],0.17 mg/dL
same,TOTAL PROTEIN,[7],6.07 G/DL
same,URIC ACID,[7],0.83 mg/dL
